Laboratory results from patent publication US7581540B2, “Aerosol drug delivery device incorporating percussively activated heat packages” (Alexza Pharmaceuticals, Inc., priority 2004, dated 2009).
Read-outs that look alike come from different tables or passages of the source.

Tests used:
[1] = for average nicotine purity of the aerosol: maximum temperature 300° C., air flow 20 L/min
Procedure: The purity of nicotine in an aerosol produced by vaporizing thin films of (nicotine)2-ZnBr2 was also determined. The percent purity of nicotine in the aerosol was determined by comparing the area under the curve representing nicotine with the area under the curve for all other components separated by HPLC.
The coatings of (nicotine)2-ZnBr2 complex were vaporized by applying a current to the metal foil sufficient to heat the coatings to temperatures of 300° C., 350° C., and 400° C. The aerosol formed by vaporizing the coating in an air flow of 20 L/min was analyzed by collecting the aerosol on oxalic acid coated filters. The collected aerosol was extracted from the filters with 5 mL of an aqueous solution containing 0.1% TFA. A Varian HPLC system having a single XTerra RP18, 4.6×150 mm column, with an eluant solution comprising a 75% aqueous phase of perchloric acid solution with one ampoule of 1-octanesulfonic acid sodium salt concentrate at pH 2, and a 25% organic phase of acetonitrile was used. The HPLC was performed under isocratic run conditions for 20 minutes.

[2] = 350° C., air flow 28.3 L/min
Procedure: To coat metal foils, the (nicotine)2-ZnBr2 complex was dissolved in chloroform. Two separate coating thickness of the (nicotine)2-ZnBr2 complex on stainless steel were prepared. A 169.4 mg/mL solution of (nicotine)2-ZnBr2 complex in chloroform and a 338.8 mg/mL solution of (nicotine)2-ZnBr2 complex in chloroform were made. Exposure to light was minimized at all times during and after formation of these solutions. The (nicotine)2-ZnBr2 complex for each solution was hand coated onto 0.005 inch thick stainless foils using a 10 uL Hamilton syringe. 5.9 uL of the 169.4 mg/mL (nicotine)2-ZnBr2 complex solution was coated onto both sides of an area of 1.27 cm×2.3 cm of stainless steel. This corresponds to a 2 μm film thickness coating which contained about 1 mg of nicotine. Similarly, 8.8 μL of the 338.8 mg/mL (nicotine)2-ZnBr2 complex solution was coated onto both sides of an area of 1.27 cm×2.3 cm of stainless steel. This corresponds to a […] film thickness coating which contained about […] of nicotine The coatings were dried under vacuum for about 1 hour at 25° C. The coatings of (nicotine)2-ZnBr2 complex were stored in a vacuum for at least 30 minutes and protected from light prior to use.
The coatings of (nicotine)2-ZnBr2 complex were vaporized by applying a current of 13.0V to the metal foil sufficient to heat the coatings to temperature of 350° C. The aerosol formed by vaporizing the coating in an air flow of 28.3 L/min was analyzed by collected the aerosol on oxalic acid coated filters using an 8 stage Anderson impactor. […] After vaporization the filters were extracted with 5 mL of 0.1% trifluoroacetic acid/DI H2O and analyzed by HPLC.

[3] = airflow about 20 L/min
[4] = drug aerosol purity and recovered yield after vaporization from a percussively ignited heat package, HPLC; assay type: physicochemical
[5] = 25° C.; cited from earlier work
[6] = cited from earlier work
[7] = smokeless nicotine products (chewing tobacco, oral snuff, tobacco sachets), buccal absorption

## CN1CCCC1c1cccnc1.CN1CCCC1c1cccnc1.[Br][Zn][Br] (stereo not shown) [(nicotine)2-ZnBr2]
[1]; 2 μm thick thin film
  average nicotine purity of the aerosol: about 99.5%
[1]; 6 μm thick thin film
  average nicotine purity of the aerosol: about 99.99%
[1]; for a given vaporization temperature
  purity of nicotine aerosol from 6 μm film compared with 2 μm film: greater
[1]; thin film heated to a maximum temperature of greater than 300° C.
  change of nicotine purity of the aerosol: decreased
[2]; 2 μm thick film
  MMAD of the nicotine aerosol: 2.00
  purity of the nicotine aerosol: greater than 97%
[2]; 6 μm thick film
  MMAD of the nicotine aerosol: 1.79
  purity of the nicotine aerosol: greater than 97%
[3]; 2 μm thick thin film, temperature range 300° C. to 400° C.
  average yield of nicotine in the aerosol: about 60±7%
[3]; 6 μm thick thin film, maximum temperature 300° C.
  average yield of nicotine in the aerosol: about 51±2%
[3]; 6 μm thick thin film, maximum temperature 400° C.
  average yield of nicotine in the aerosol: about 73±1%

## Cc1nnc2n1-c1ccc(Cl)cc1C(c1ccccc1)=NC2 [alprazolam]
[4]
  purity of the resultant aerosol: 96.8%
  recovered yield of aerosol: 100%

## CC(C)C(=O)OCC(=O)[C@@]12O[C@H](C3CCCCC3)O[C@@H]1C[C@H]1[C@@H]3CCC4=CC(=O)C=C[C@]4(C)[C@H]3[C@@H](O)C[C@@]12C [ciclesonide]
[4]; percussively ignited heat package, greater than 800° C., air flow 20 L/min, film 1.58 μm alprazolam, 6.33 μm pramipexole, 2.53 μm ciclesonide
  purity of the resultant aerosol: 85.6%

## CN1CCCC1c1cccnc1 (stereo not shown) [nicotine]
[5]
  vapor pressure: 0.0425 mmHg
[6]; cigarette smoking
  time to attain nicotine blood level peak: ≤ 10 min
[6]; produced by cigarettes
  nicotine blood level peak: 30 to 40 ng/mL
[6]; [7]
  maximum nicotine blood concentration: approximately 12 ng/mL
  time of use to attain maximum nicotine blood concentration: approximately 30 minutes
